Tests used:
coronary A2 receptors = details: cited from earlier work
[1] = target: T1, A2 receptors of human platelets (Homo sapiens, UniProt P29274); assay: Antagonism of NECA-induced stimulation of adenylate cyclase activity of human platelet membranes; format: biochemical; details: for antagonist potency at platelet A2 receptor: human platelet membranes, NECA-stimulated adenylate cyclase, result in words
Description: (§1) Human platelet, rat pheochromocytoma (PC12) cell, rat fat cell and rat cerebral cortex membranes were prepared as described (4,5,6). Adenylate cyclase activity and binding [^3 H]PIA to cerebral cortex membranes were determined essentially as described (4,5,6). KB values for the compounds were determined as described (4). […] EC50 and IC50 values for the agonists were obtained from the concentration-response curves by linear regression after logit-log transformation. KB values of the antagonists were calculated using the Schild equation KB =C/(CR-1), where C denotes the concentration of the competitor and CR the ratio of the EC50 and IC50 values in the presence and absence, respectively, of the competitor. IC50 of the compounds for inhibition of [^3 H]PIA binding to cerebral cortex membranes were transformed into Ki values as described (6).
In these cells, A2 receptor-mediated stimulation of adenylate cyclase results in an inhibition of aggregation (5,7).

[2] = test system: A2 receptors of rat pheochromocytoma (PC12) cells; assay: Antagonism of NECA-induced stimulation of adenylate cyclase activity of PC12 cell membranes; format: biochemical; details: NECA-stimulated adenylate cyclase, result in words
Description: as §1

[3] = target: T2, A1 receptors of rat fat cells (Rattus norvegicus, UniProt P25099); assay: Antagonism of R-PIA-induced inhibition of rat fat cell adenylate cyclase activity; format: biochemical; details: rat fat cell membranes, result in words
T2 sequence (P25099 1-326): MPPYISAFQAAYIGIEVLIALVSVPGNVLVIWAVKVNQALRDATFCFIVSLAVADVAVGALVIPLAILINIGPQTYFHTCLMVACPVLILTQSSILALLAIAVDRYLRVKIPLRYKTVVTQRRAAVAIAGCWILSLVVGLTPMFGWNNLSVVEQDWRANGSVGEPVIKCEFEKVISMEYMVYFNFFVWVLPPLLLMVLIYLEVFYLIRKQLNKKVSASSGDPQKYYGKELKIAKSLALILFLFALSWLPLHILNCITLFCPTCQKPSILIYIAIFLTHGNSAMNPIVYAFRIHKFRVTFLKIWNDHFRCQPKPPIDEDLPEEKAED
Description: as §1

[4] = test system: adenosine receptor in human fibroblast cell line; details: cited from earlier work
[5] = target: T3, A1 receptors of rat cerebral cortex membranes (Rattus norvegicus, UniProt P25099); assay: Inhibition of [3H]PIA binding to rat cerebral cortex membranes
T3 sequence (P25099 1-326): T2 sequence (P25099 1-326)
Description: as §1

[6] = target: T4, A1 adenosine receptor (guinea pig atrium) (Cavia porcellus, UniProt P47745); assay: Antagonism of adenosine agonists in isolated guinea pig left atrium (force of contraction); details: guinea pig atria, result in words
T4 construct: The left atria from male guinea pigs were isolated; from tissue; host or cells: left atria of male guinea pigs
T4 sequence (P47745 1-326): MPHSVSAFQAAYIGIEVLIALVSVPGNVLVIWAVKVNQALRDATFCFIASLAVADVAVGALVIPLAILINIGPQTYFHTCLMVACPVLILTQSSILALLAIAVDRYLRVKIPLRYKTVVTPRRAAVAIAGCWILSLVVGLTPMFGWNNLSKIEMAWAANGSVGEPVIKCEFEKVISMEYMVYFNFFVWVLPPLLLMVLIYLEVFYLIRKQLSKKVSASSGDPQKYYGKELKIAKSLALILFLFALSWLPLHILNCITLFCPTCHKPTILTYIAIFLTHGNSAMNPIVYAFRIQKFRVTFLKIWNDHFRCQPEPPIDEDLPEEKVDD
Description: The left atria from male guinea pigs were isolated, suspended between two punctate electrodes, and placed in a 20 ml organ bath that contained Krebs-Hensileit solution that was continuously gassed with 95% O2 + 5% CO2 and maintained at 31° C. The resting tension was one gram. Theatria were stimulated electrically at 1 hz, 1 ms duration pulses at supramaximal voltage. The force of contraction was recorded isometrically.
(§2) The ability of the compounds to antagonize the effects of agonists was analyzed using modified Schild plots.

[7] = test system: A2 adenosine receptor (guinea pig taenia caecum); assay: Antagonism of adenosine agonists in isolated guinea pig taenia caecum (contractile tone)
Description: Taenia from the guinea pig caecum were cut into lengths of 1.5-2 cm. The tissues were suspended in a 20 ml organ bath containing de Jalon's solution that was gassed with 95% O2 + 5% CO2 and maintained at 31° C. The resting tension was 1.5 g. The contractile response was measured isotonically.
as §2

A1 receptors = target: T5, A1 receptors (Rattus norvegicus, UniProt P25099); assay: Activity at A1 adenosine receptors (overall, fat cells and brain membranes); format: biochemical; details: discussion, fat cell and brain data
T5 sequence (P25099 1-326): T2 sequence (P25099 1-326)
Description: as §1

[8] = test system: A1 and A2 adenosine receptors; assay: Activity at adenosine receptors, A1 versus A2 selectivity (overall); format: biochemical; details: in words
Description: as §1

A2 receptors = details: literature; cited from earlier work
A1 adenosine receptors = details: literature; cited from earlier work
[9] = target: T1, A2 receptors of human platelets; details: cited from earlier work
[10] = test system: A2 receptors of PC12 cells; details: cited from earlier work

T1 sequence (P29274 whole entry): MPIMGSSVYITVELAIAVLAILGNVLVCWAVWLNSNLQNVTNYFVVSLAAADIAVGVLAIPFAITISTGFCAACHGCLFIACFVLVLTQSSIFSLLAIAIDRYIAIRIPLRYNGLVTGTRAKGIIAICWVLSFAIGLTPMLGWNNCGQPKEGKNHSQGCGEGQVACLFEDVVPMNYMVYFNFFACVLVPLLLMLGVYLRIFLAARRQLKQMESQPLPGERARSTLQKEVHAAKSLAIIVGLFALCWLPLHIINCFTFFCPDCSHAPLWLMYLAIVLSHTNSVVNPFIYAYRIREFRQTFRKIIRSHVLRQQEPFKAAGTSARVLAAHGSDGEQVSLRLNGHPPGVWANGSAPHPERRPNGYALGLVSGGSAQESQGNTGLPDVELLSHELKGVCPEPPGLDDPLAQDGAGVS

OC[C@H]1O[C@@H](n2cnc3c(Oc4ccccc4)ncnc32)[C@H](O)[C@@H]1O [6-phenoxypurine riboside]
activity at coronary A2 receptors (coronary A2 receptors): inactive or nearly so

Nc1ncnc2nc[nH]c12 [Example 1, Adenine, reference compound]
antagonist potency at platelet A2 receptor [1]: very weak antagonist | effect on basal adenylate cyclase activity ([1]; human platelets, data not shown): does not affect basal adenylate cyclase activity | antagonist potency at A2 receptor of PC12 cells [2]: very weak antagonist | antagonist potency at A1 receptors of fat cells [3]: does not affect R-PIA-induced inhibition of fat cell adenylate cyclase activity | specific, competitive antagonism of cyclic AMP accumulation ([4]; adenosine-induced, human fibroblast cell line): specific, competitive antagonist | Ki ([4]; competitive antagonism of adenosine-induced cyclic AMP accumulation, human fibroblast cell line): 200 µM

Cn1cnc2c(N)ncnc21 [Example 2, 9-Methyladenine, reference compound]
antagonist potency at platelet A2 receptor [1]: more potent than the adenine itself | antagonist potency at A1 receptors of fat cells [3]: antagonizes the effect of R-PIA | potency increase by methylation of adenine at the 9-position ([4]; relative to adenine): about 4 fold

Cn1cnc2c(NC3CCCC3)ncnc21 [Example 4, N^6 -Cyclopentyl-9-MA]
antagonist potency at platelet A2 receptor [1]: more potent than 9-methyladenine itself | potency at platelet A2 receptor relative to PC12 A2 receptor ([1]; human platelets versus rat PC12 cells): more potent at the platelet A2 receptor than at the PC12 A2 receptor | antagonist potency at A1 receptors of fat cells [3]: more potent than the parent compound 9-methyladenine | inhibition of [3H]PIA binding (Ki), in words [5]: more potent | antagonism of adenosine agonists in atria [6]: competitive antagonists | antagonism of adenosine agonists in taenia caecum ([7]; guinea pig taenia caecum relaxation): did not competitively antagonize the effects of adenosine agonists | sensitization of the tissue ([7]; guinea pig taenia caecum, high concentrations): some sensitization of the tissue | activity at A1 receptors, in words (A1 receptors): most potent of N^6 -substituted 9-methyladenines at A1 receptors | potency at adenosine receptors (subtype not stated) [8]: more potent than 9-methyladenine | receptor selectivity A1 versus A2 ([8]; listed as N^6 -Cyclopentyl): selective for A1 receptors | receptor selectivity A1 versus A2 ([8]; listed as cyclopentyl-): selective for receptors

Cn1cnc2c(NC3(C)CCCC3)ncnc21 [Example 5, N^6 -Methylcyclopentyl-9-MA]
antagonist potency at platelet A2 receptor [1]: less potent than the parent cyclopentyl analog | antagonist potency at A2 receptor of PC12 cells [2]: reduces potency in PC12 cells | antagonist potency at A1 receptors of fat cells [3]: less potent | activity at A1 receptors, in words (A1 receptors): reduces activity at A1 receptors | receptor selectivity A1 versus A2 [8]: selective for receptors

CCNC(=O)[C@H]1O[C@@H](n2cnc3c(N)ncnc32)[C@H](O)[C@@H]1O [NECA, 5'-N-ethylcarboxamido-adenosine]
potency at A2 receptors, in words (A2 receptors): more potent than N^6 -substituted analogs at A2 receptors

OC[C@H]1O[C@@H](n2cnc3c(NCc4ccccc4)ncnc32)[C@H](O)[C@@H]1O [N^6 -benzyladenosine]
affinity/activity at A1 receptors, in words (A1 adenosine receptors): low activity | agonist potency at platelet A2 receptors, in words [9]: more potent of the N^6 -substituted adenosines

OC[C@H]1O[C@@H](n2cnc3c(NC4CCC4)ncnc32)[C@H](O)[C@@H]1O [N^6 -cyclobutyl-]
agonist potency at platelet A2 receptors, in words [9]: more potent of the N^6 -substituted adenosines | agonist potency at PC12 A2 receptors, in words [10]: more potent of the series

OC[C@H]1O[C@@H](n2cnc3c(NCCc4ccsc4)ncnc32)[C@H](O)[C@@H]1O [N^6-2-(3-thienylethyl)-]
agonist potency at platelet A2 receptors, in words [9]: more potent of the N^6 -substituted adenosines

C[C@H](Cc1ccccc1)Nc1ncnc2c1ncn2[C@@H]1O[C@H](CO)[C@@H](O)[C@H]1O [R-PIA, N^6 -R-1-phenyl-2-propyladenosine]
affinity/activity at A1 receptors, in words (A1 adenosine receptors): very high affinity for A1 adenosine receptors | agonist potency at platelet A2 receptors, in words [9]: more potent of the N^6 -substituted adenosines | agonist potency at PC12 A2 receptors, in words [10]: more potent of the series
